What all share (assay type): functional
Test [1] deals with SF-268. Put plainly: Growth inhibition of human SF268 cells after 48 hrs by sulforhodamine B assay. Conditions: SF-268, 48 h. (Sulforhodamine B stains cellular protein and so reports cell mass.)
Test [2] deals with NCI-H460. Put plainly: Growth inhibition of human NCI-H460 cells after 48 hrs by sulforhodamine B assay. The following applies: NCI-H460, 48 h.
For test [3], the system named is MCF7. Put plainly: Growth inhibition of human MCF7 cells after 48 hrs by sulforhodamine B assay. Conditions: MCF7, 48 h.
Test [4] concerns Leishmania donovani. Put plainly: Antileishmanial activity against Leishmania donovani axenic amastigotes infected in human THP1 cells assessed as growth inhibition at 50 uM. The following applies: THP-1, read-out: GI.
Test [5] relates to THP-1. The test is described as follows: Growth inhibition of human THP1 cells after 48 hrs by sulforhodamine B assay. The following applies: THP-1, 48 h.

The record followed here is ChEMBL document CHEMBL1764977, “Anti-tumor and anti-leishmanial evaluations of 1,3,4-oxadiazine, pyran derivatives derived from cross-coupling reactions of β-bromo-6H-1,3,4-oxadiazine derivatives” (2011).

As to `N#CCC(=O)N/N=C(/CBr)c1ccc(Br)cc1`, the results for the GI50 in test [1], in test [2] and in test [3] were 12.8 µM, 10 µM and 40.6 µM, respectively. In test [4], the inhibition of growth at 50 µM is 20%.
The matching figures for `N#CCC(=O)N/N=C(/CBr)c1ccc([N+](=O)[O-])cc1`: 14 µM, 10.3 µM, 18.4 µM and 35%.
The like results for `N#CCC1=NN=C(c2ccc(Br)cc2)CO1` were, in that order, 10.3 µM, 0.9 µM, 1.5 µM and 26%.
The matching figures for `N#CCC1=NN=C(c2ccc([N+](=O)[O-])cc2)CO1`: 1.8 µM, 0.002 µM, 0.001 µM and 44%.
Turning to `N#CCC1=NN=C(c2ccc(Br)cc2)C(Br)O1` (stereo not given), the GI50 in test [1] was 32 µM; in test [2] it was 38.2 µM; in test [3], 70.7 µM. Also, the inhibition of growth at 50 µM in test [4] stood at 40%.
As for `N#CCC1=NN=C(c2ccc([N+](=O)[O-])cc2)C(Br)O1` (stereo not given), the GI50 in test [1] was 6.7 µM; in test [5], 22 µM; in test [2] it was 8.5 µM; in test [3] it was 10.6 µM. In addition, the inhibition of growth at 50 µM in test [4] amounted to 58%.
On to `N#CCC1=NN=C(c2ccc(Br)cc2)C(CC(=O)c2ccc(Br)cc2)O1` (stereo not given), for which the GI50 in test [1] was 16.9 µM; in test [2], 22.1 µM; in test [3], 30.4 µM. Moreover, in test [4], the inhibition of growth at 50 µM came out at 48%.
In the case of `N#CCC1=NN=C(c2ccc(Br)cc2)C(CC(=O)c2ccc([N+](=O)[O-])cc2)O1` (stereo not given), the GI50 in test [1] stood at 18.5 µM; in test [5], 20 µM; in test [2], 23 µM; in test [3] it was 32 µM. In addition, in test [4], the inhibition of growth at 50 µM was determined as 60%.
In the case of `N#CCC1=NN=C(c2ccc([N+](=O)[O-])cc2)C(CC(=O)c2ccc(Br)cc2)O1` (stereo not given), the GI50 in test [1] turned out to be 16.5 µM; in test [2] it was 40 µM; in test [3] it was 36 µM. The inhibition of growth at 50 µM in test [4] worked out at 73%.
As for `N#CCC1=NN=C(c2ccc([N+](=O)[O-])cc2)C(CC(=O)c2ccc([N+](=O)[O-])cc2)O1` (stereo not given), the GI50 was 2 µM in test [1], 33 µM in test [5], 2.6 µM in test [2] and 1.6 µM in test [3]. Moreover, the inhibition of growth at 50 µM in test [4] is 88%.
Turning to `N#CCC1=C(C#N)CC(c2ccc(Br)cc2)=C(CC(=O)c2ccc(Br)cc2)O1`, the 50% growth inhibitory concentration (GI50) in test [1] amounted to 8.2 µM; in test [2] it was 10.4 µM; in test [3], 12 µM. For the same compound, in test [4], the inhibition of growth at 50 µM is 60%.
`N#CCC1=C(C#N)CC(c2ccc(Br)cc2)=C(CC(=O)c2ccc([N+](=O)[O-])cc2)O1`: the GI50 in test [1] was 0.003 µM; in test [5], 12.9 µM; in test [2] it was 0.01 µM; in test [3], 0.09 µM. Moreover, the inhibition of growth at 50 µM in test [4] is 90%.
The matching figures for `N#CCC1=C(C#N)CC(c2ccc([N+](=O)[O-])cc2)=C(CC(=O)c2ccc(Br)cc2)O1`: 2.8 µM, 26 µM, 3.6 µM, 4.9 µM and 82%.
The like results for `N#CCC1=C(C#N)CC(c2ccc([N+](=O)[O-])cc2)=C(CC(=O)c2ccc([N+](=O)[O-])cc2)O1` were, in that order, 0.005 µM, 10.2 µM, 0.08 µM, 0.03 µM and 98%.
`C[C@@H]1[C@H](O)[C@@H](C)/C=C/C=C/C=C/C=C/C=C/C=C/C=C/[C@H](O[C@@H]2O[C@H](C)[C@@H](O)[C@H](N)[C@@H]2O)C[C@@H]2O[C@](O)(C[C@@H](O)C[C@@H](O)[C@H](O)CC[C@@H](O)C[C@@H](O)CC(=O)O[C@H]1C)C[C@H](O)[C@H]2C(=O)O` [AMPHOTERICIN B]: the inhibition of growth at 50 µM in test [4] is 95%.
On to `COc1cccc2c1C(=O)c1c(O)c3c(c(O)c1C2=O)C[C@@](O)(C(=O)CO)C[C@@H]3O[C@H]1C[C@H](N)[C@H](O)[C@H](C)O1` [DOXORUBICIN], for which the GI50 in test [1] and in test [2] was 0.094 µM each time.

The term GI50 denotes the concentration at which growth is held to half of that of the control. A higher GI50 goes with less potent growth inhibition.
